Tests used:
[1] = biological target: T1, MMP-9 (Homo sapiens, UniProt P14780); assay: Thiopeptilide MMP-9 Inhibition Assay; type: biochemical; settings: for inhibition at 5 µM: read-out: MMP-9: Thiopep. % inhibition; for IC50: pH 6.5, x (n) = average of n determinations, read-out: MMP-9: Thiopep. IC50
T1 construct: from tissue; host or cells: human polymorphonuclear leukocytes (PMN) from whole blood (New York Blood Center), PMA-stimulated supernatant

[2] = biological target: T2, MMP-3 (Homo sapiens, UniProt P08254); assay: Primary Thiopeptilide MMP-3 Inhibition Assay; type: biochemical; settings: for inhibition at 5 µM: read-out: MMP-3 Thiopep. % inhibition; for IC50: pH 6.5, 13 nM stromelysin, x (n) = average of n determinations, read-out: MMP-3 Thiopep. IC50
T2 construct: Truncated Prostromelysin-257 was expressed in a soluble form in E.coli; made in house; host or cells: E. coli
T2 sequence (P08254 100-274 limits assumed): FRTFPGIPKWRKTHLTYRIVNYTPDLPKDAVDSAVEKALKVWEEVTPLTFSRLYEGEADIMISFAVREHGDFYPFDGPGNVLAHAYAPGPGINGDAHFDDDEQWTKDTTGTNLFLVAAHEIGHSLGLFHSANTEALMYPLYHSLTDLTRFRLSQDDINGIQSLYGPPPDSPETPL

T1 sequence (P14780 107-707 limits assumed): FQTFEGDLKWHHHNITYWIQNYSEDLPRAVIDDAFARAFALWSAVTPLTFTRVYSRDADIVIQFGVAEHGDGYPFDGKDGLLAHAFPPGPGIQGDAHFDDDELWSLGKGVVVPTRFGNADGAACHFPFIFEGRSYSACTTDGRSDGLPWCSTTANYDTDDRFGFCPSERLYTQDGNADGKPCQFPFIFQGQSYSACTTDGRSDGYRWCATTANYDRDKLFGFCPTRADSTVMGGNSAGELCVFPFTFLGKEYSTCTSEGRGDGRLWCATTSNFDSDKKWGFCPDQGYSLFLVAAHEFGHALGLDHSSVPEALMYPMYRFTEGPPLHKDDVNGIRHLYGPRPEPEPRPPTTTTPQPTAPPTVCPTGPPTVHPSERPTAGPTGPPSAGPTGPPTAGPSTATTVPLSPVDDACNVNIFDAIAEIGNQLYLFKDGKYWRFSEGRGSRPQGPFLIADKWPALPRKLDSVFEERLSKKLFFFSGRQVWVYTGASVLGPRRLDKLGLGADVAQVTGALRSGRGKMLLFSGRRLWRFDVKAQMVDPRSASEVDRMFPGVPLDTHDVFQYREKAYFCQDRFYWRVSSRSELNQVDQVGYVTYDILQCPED

SMILES	inhibition at 5 µM [1] [%]	inhibition at 5 µM [2] [%]	IC50 [1] [nM]	IC50 [2] [nM]
O=C(O)/C=C/C(=O)c1ccc(-c2ccc(Cl)cc2)cc1 [Example 29, 4-Oxo-4-(4'-chloro-4-biphenyl)but-2-enoic acid, reference compound]	44	28	–	–
O=C(O)CCC(=O)c1ccc(-c2ccc(Br)cc2)cc1 [Example 7, [1,1'-Biphenyl]-4-butanoic acid, 4'-bromo-γ-oxo-, reference compound]	–	–	2100	690
CSc1ccc(-c2ccc(C(=O)CC(CCCc3ccccc3)C(=O)O)cc2)cc1 (stereo not drawn) [Example 51, [1,1'-Biphenyl]-4-butanoic acid, 4'-(methylthio)-γ-oxo-α-(3-phenylpropyl)-]	–	–	100	170
C=C(CC(=O)c1ccc(C)cc1)C(=O)O [Example 28, Benzenebutanoic acid, 4-methyl-α-methylene-γ-oxo-, reference compound]	0	14	–	–
O=C(CC(CCCc1ccccc1)C(=O)O)c1ccc(-c2ccc(OCCCl)cc2)cc1 (stereo not drawn) [Example 52, [1,1'-Biphenyl]-4-butanoic acid, 4'-(2-chloroethoxy)-γ-oxo-α-(3-phenylpropyl)-]	–	–	37	76
CC(C)C[C@@H](CC(=O)c1ccc(-c2ccc(Cl)cc2)cc1)C(=O)O [Example 2, [1,1'-Biphenyl]-4-butanoic acid, 4'-chloro-α-(2-methylpropyl)-γ-oxo-, (S)-]	–	–	2200	270
COC(=O)c1ccccc1S[C@H]1CC[C@H](C(=O)c2ccc(-c3ccc(Cl)cc3)cc2)[C@H]1C(=O)O (relative stereo) [Example 298, trans-5-[4-(4-chlorophenyl)phenylcarbonyl]-cis-2-(2-methoxycarbonylphenylthio)cyclopentanecarboxylic acid]	–	–	850	50

Now from value to molecule:

inhibition at 5 µM [1] [%]	inhibition at 5 µM [2] [%]	IC50 [1] [nM]	IC50 [2] [nM]	SMILES
–	–	435	170	O=C(CC(CSc1ccccc1F)C(=O)O)c1ccc(-c2ccc(Cl)cc2)cc1 (stereo not drawn) [Example 218, [1,1'-Biphenyl]-4-butanoic acid, 4'-chloro-α-[[(2-fluorophenyl)thio]methyl]-γ-oxo-]
–	–	600	220	COc1ccc(-c2ccc(C(=O)CC(CCCc3ccccc3)C(=O)O)cc2)cc1 (stereo not drawn) [Example 73, [1,1'-Biphenyl]-4-butanoic acid, 4'-methoxy-γ-oxo-α-(3-phenylpropyl)-]
–	–	580	930	CC(=O)Nc1ccc(SCC(CC(=O)c2ccc(-c3ccc(Cl)cc3)cc2)C(=O)O)cc1 (stereo not drawn) [Example 223, [1,1'-Biphenyl]-4-butanoic acid, α-[[[4-(acetylamino)phenyl]thio]methyl]-4'-chloro-γ-oxo-]
11	7	–	–	O=C(CC(CCCc1ccccc1)C(=O)O)c1ccc(-c2cc(Cl)cc(Cl)c2)cc1 (stereo not drawn) [Example 66, [1,1'-Biphenyl]-4-butanoic acid, 3',5=-dichloro-γ-oxo-α-(3-phenylpropyl)-]
–	–	800	340	COc1ccc(CSCC(CC(=O)c2ccc(-c3ccc(Cl)cc3)cc2)C(=O)O)cc1 (stereo not drawn) [Example 201, [1,1'-Biphenyl]-4-butanoic acid, 4'-chloro-α-[[[(4-methoxyphenyl)methyl]thio]methyl]-γ-oxo-]
17	7	–	–	O=C(CC(Cc1ccc(-c2ccccc2)cc1)C(=O)O)c1ccc(-c2ccc(Cl)cc2)cc1 (stereo not drawn) [Example 182, [1,1'-Biphenyl]-4-butanoic acid, α-([1,1'-biphenyl]-4-ylmethyl)-4'-chloro-γ-oxo-]
–	–	3000	600	CC(C)(C)C(=O)SCC(CC(=O)O)C(=O)c1ccc(-c2ccc(Cl)cc2)cc1 (stereo not drawn) [Example 256, [1,1'-Biphenyl]-4-butanoic acid, 4'-chloro-β-[[(2,2-dimethyl-1-oxopropyl)thio]methyl]-γ-oxo-]
–	–	600	144	COc1cccc(SCC(CC(=O)c2ccc(-c3ccc(Cl)cc3)cc2)C(=O)O)c1 (stereo not drawn) [Example 234, [1,1'-Biphenyl]-4-butanoic acid, 4'-chloro-α-[[(3-methoxyphenyl)thio]methyl]-γ-oxo-]

Reference: patent US5789434A, “Derivatives of substituted 4-biarylbutyric acid as matrix metalloprotease inhibitors” (priority 1995, dated 1998)
